In patent publication EP0770681A2, “T cell epitopes of the major allergens from ambrosia artemisiifolia” (IMMULOGIC PHARMACEUTICAL CORPORATION, priority 1992, dated 1993):
No end group written: not given here.

Experiments:
[1] = tested on: basophils present in heparinized whole blood; test: histamine release assay; type: cell-based, human; conditions: blood of ragweed-allergic patient #1273, similar in seven other patients; Amb a I.1 from 10 µg/ml in 10-fold dilutions, peptides 50 µg/ml to 0.08 µg/ml
Method: The histamine release assay used for these studies is based on the detection of an acylated derivative of histamine using a specific monoclonal antibody (Morel, A.M. and Delaage, M.A. (1988) J. Allergy Clin. Immunol. 82:646-654). The assay was performed in two steps: 1) the release of histamine from basophils present in heparinized whole blood in the presence of different concentrations of protein or peptide; and 2) the assay of histamine present in the supernatants of the release reactions following cell removal by centrifugation. The reagents for this second step are available commercially as a competitive radioimmunoassay from AMAC Inc. (Westbrook, ME).
Heparinized whole blood was drawn from ragweed allergic patients. […] The tubes were then centrifuged in a microfuge at 1500 RPM for 3 minutes and the supernatants were carefully removed and analyzed or stored at -20°C for later analysis. […]
For the competition radioimmunoassay, a 50 µl aliquot of each release supernatant was mixed with 150 µl of histamine release buffer (supplied with the kit from AMAC). […] The solutions were aspirated from the tubes and the radioactivity bound to the tube was measured on a gamma counter (Cobra 5005, Beckman, Inc.) for two minutes per tube. […]
Six or more 10-fold dilutions of Amb a I.1 starting at 10 µg/ml (approximately 0.66 µM) were analyzed. […]

[2] = tested on: Amb a I.1 stimulated T cell line plus APC; test: assessment of peptide toxicity in Amb a I.1 primed secondary T cell culture; type: cell-based, human
Method: This could reflect a potential toxic effect of the peptides in the T cell assays. To investigate this possibility, an assay was conducted to determine the ability of the peptides to inhibit T cell proliferation. Inhibition was defined as proliferation of a T cell line in response to the peptide which was less than half the proliferation of media control T cell lines plus autologous EBV transformed antigen presenting cells. […]

[3] = peptide solubility; type: physicochemical; conditions: compared among Amb 2-18.1, Amb2-19.1, Amb2-20.1 and Amb2-21.1
Description: Peptides Amb 2-18.1 (SEQ ID NO:126), Amb2-19.1 (SEQ ID NO:127), Amb2-20.1 (SEQ ID NO:128) and Amb2-21.1 (SEQ ID NO:129) correspond to different lengths of the original peptide which were synthesized (including the serine substitution at position 212) and analyzed to determine solubility. […] Thus, substitutions and/or amino acid additions to this peptide were made in order to further increase the solubility while maintaining T cell reactivity. For example, in peptides Amb2-22.1 (SEQ ID NO:130) and Amb2-23.1 (SEQ ID NO:131) isoleucine at position 201 was substituted with glutamic acid (Amb2-22.1) or lysine (Amb2-23.1) to lower the pI of the resulting peptide and avoid precipitation of the peptide at physiological pH. Similarly, the following peptides were also synthesized with various substitutions or additions designed to decrease the pI and increase the hydrophilicity of the peptide, each is shown in Figure 25: Amb2-26.1 (SEQ ID NO:132); Amb2-28.1 (SEQ ID NO:133); Amb2-30.1 (SEQ ID NO:134); Amb2-32.1 (SEQ ID NO:135); Amb2-33.1 (SEQ ID NO:136); Amb2-34.1 (SEQ ID NO:137); Amb2-35.1 (SEQ ID NO:138); Amb2-36.1 (SEQ ID NO:139); Amb2-37.1 (SEQ ID NO:140); and Amb2-38.1 (SEQ ID NO:141).

histamine release [1]	solubility [3]	Sequence	# patients ([2]; patients with toxicity (proliferation less than half of media control) / patients tested)	(%)patients ([2]; percent of patients with toxicity (proliferation less than half of media control))	both ([2]; toxicity at 5 µg/ml and 50 µg/ml peptide, fraction of patients with toxicity)	low dose only ([2]; toxicity only at 5 µg/ml peptide, fraction of patients with toxicity)	high dose only ([2]; toxicity only at 50 µg/ml peptide, fraction of patients with toxicity)
no discernible histamine release	–	KGTVGGKDGDIYTVTSELDDDVAN [AMB 1-2.1]	3/46	7%	0	2/3	1/3
–	most soluble	SISGSSQIWIDHSSLSKS [AMB2-19.1]	–	–	–	–	–
